Key:
Tubulin (Bos taurus) = Tubulin (Bos taurus) (UniProt Q6B856+Q862L2+Q862F3); experiment: Inhibition of colchicine binding to tubulin was evaluated only when polymerization IC50 <=1.0 uM; format: protein assay
OVCAR-3 = experiment: Tested for in vitro tumor cell growth inhibition of ovarian cancer cell line OVCAR-3; format: functional; details: Homo sapiens
KM-20L2 = experiment: Tested for in vitro tumor cell growth inhibition of colon cancer cell line […]; format: functional; details: Homo sapiens
RXF 393 = experiment: Tested for in vitro tumor cell growth inhibition of renal cancer cell line RXF-393; format: functional; details: Homo sapiens
HCT-116 = experiment: Tested for in vitro tumor cell growth inhibition of colon cancer cell line HCT116; format: functional; details: Homo sapiens
NCI-H226 = experiment: Tested for in vitro tumor cell growth inhibition of non-small cell lung cancer cell line NCI-H226; format: functional; details: Homo sapiens
Tubulin = Tubulin (Bos taurus, UniProt Q6B856+Q862L2+Q862F3); experiment: Inhibition of bovine tubulin polymerization; format: functional
SK-MEL-5 = experiment: Tested for in vitro tumor cell growth inhibition of melanoma cell line SK-Mel-5; format: functional; details: Homo sapiens
SF-295 = experiment: Tested for in vitro tumor cell growth inhibition of CNS tumor cell line SF-295; format: functional; details: Homo sapiens
SF-268 = experiment: Tested for in vitro tumor cell growth inhibition of CNS tumor cell line SF-268; format: functional; details: Homo sapiens
K562 = experiment: Tested for in vitro tumor cell growth inhibition of leukemia cell line K-562; format: functional; details: Homo sapiens
OVCAR-4 = experiment: Tested for in vitro tumor cell growth inhibition of ovarian cancer cell line OVCAR-4; format: functional; details: Homo sapiens
DU-145 = experiment: Tested for in vitro tumor cell growth inhibition of prostate cancer cell line DU-145; format: functional; details: Homo sapiens
MDA-N = experiment: Tested for in vitro tumor cell growth inhibition of breast cancer cell line MDA-N; format: functional; details: Homo sapiens

Compound	inhibition (Tubulin (Bos taurus))	GI50 (OVCAR-3)	GI50 (KM-20L2)	GI50 (RXF 393)	GI50 (HCT-116)	GI50 (NCI-H226)	IC50 (Tubulin)	GI50 (SK-MEL-5)	GI50 (SF-295)	GI50 (SF-268)	GI50 (K562)	GI50 (OVCAR-4)	GI50 (DU-145)	GI50 (MDA-N)
CNc1cccc(-c2cc(O)c3cc4c(cc3n2)OCO4)c1	17%	339 nM	331 nM	363 nM	245 nM	537 nM	650 nM	447 nM	324 nM	5500 nM	398 nM	–	–	–
Oc1cc(-c2ccccc2)nc2cc3c(cc12)OCO3	26%	–	–	–	–	–	630 nM	–	–	–	–	–	–	–
COc1cc([C@@H]2c3cc4c(cc3[C@H](O)[C@H]3COC(=O)[C@H]23)OCO4)cc(OC)c1OC	84%	–	–	–	–	–	–	–	–	–	–	–	–	–
Oc1cc(-c2cccc(OC(F)(F)F)c2)nc2ccc(N3CCCC3)cc12	58%	–	–	–	–	–	720 nM	–	–	–	–	–	–	–
Oc1cc(-c2cccc(F)c2)nc2cc3c(cc12)OCO3	51%	288 nM	–	–	219 nM	955 nM	530 nM	269 nM	141 nM	661 nM	339 nM	–	–	–
Oc1cc(-c2cccc(Br)c2)nc2cc3c(cc12)OCO3	26%	4270 nM	3090 nM	2400 nM	3390 nM	3800 nM	530 nM	4370 nM	331 nM	3020 nM	3470 nM	> 100000 nM	–	–
Oc1cc(-c2cccc(C(F)(F)F)c2)nc2cc3c(cc12)OCO3	5%	–	1380 nM	–	–	–	820 nM	–	–	–	–	–	–	–
Oc1cccc(-c2cc(O)c3cc4c(cc3n2)OCO4)c1	26%	–	3310 nM	–	1820 nM	–	470 nM	1480 nM	5500 nM	2290 nM	724 nM	–	–	–
Nc1ccc2nc(-c3cccc(C(F)(F)F)c3)cc(O)c2c1	–	–	34700 nM	–	52500 nM	–	> 40000 nM	–	–	–	–	–	43700 nM	–
COc1cccc(-c2cc(O)c3cc(N4CCCC4)ccc3n2)c1	–	< 1 nM	< 1 nM	< 1 nM	< 1 nM	< 1 nM	–	< 1 nM	< 1 nM	< 1 nM	< 1 nM	2000 nM	< 1 nM	< 1 nM
Oc1cc(-c2cccc(OC(F)(F)F)c2)nc2cc3c(cc12)OCO3	40%	63.1 nM	36.3 nM	40.7 nM	14.1 nM	195 nM	500 nM	170 nM	25.7 nM	–	36.3 nM	25.7 nM	45.7 nM	< 10 nM
Oc1cc(-c2cccc(OCc3ccccc3)c2)nc2cc3c(cc12)OCO3	26%	245 nM	224 nM	407 nM	389 nM	229 nM	450 nM	282 nM	447 nM	12900 nM	363 nM	–	1100 nM	145 nM
COc1ccc(CCc2cc(OC)c(OC)c(OC)c2)cc1O	–	–	–	–	–	–	630 nM	–	–	–	–	–	–	–
